Like-named read-outs stand apart in the source and are kept apart here.
What was measured:
[1] = system: cerebral hemorrhage model with the use of SHR; assay: Cerebral hemorrhage in MCA occlusion-recanalization model, intracerebral hemoglobin by ELISA; assay type: in vivo, rat; settings: 24 hours after MCA occlusion, sham 4.5±0.74, saline 19.6±2.21
Experimental: For the animal, a male spontaneously hypertensive rat (hereinafter abbreviated to SHR) (14 to 15 week old); Japan Charles River) was used. The preparation of middle cerebral artery (hereinafter abbreviated to MCA) occlusion-recanalization model of rat was performed according to the method of Koizumi, et al., (in Stroke 8: 1-7, 1986). In particular, the rat was subjected to anesthetic induction by 4% halothane (halothane vaporizer, Shinano Co., Ltd.) in 30% oxygen/70% air. The anesthesia was maintained by means of 2.5% halothane. The animal was placed in a dorsal position. The dissection of anterior neck midline was performed, the left side of the common carotid artery and the external carotid artery were exfoliated from the surrounding connective tissue around the left carotid artery bifurcation, and then a thread was hooked around the artery to ligate, respectively. Afterwards, the left internal carotid artery was exfoliated from the surrounding connective tissue, and then a thread was hooked around the artery. The range of about 5 mm from the tip of a 4-0 nylon thread for surgery (NC sterilization operation thread, Nichiyo industry Co., Ltd.) (25 mm long) was silicon-coated with an impression material for dentistry (mixture solution of XANTOPREN VL plus and OPTOSIL-XANTOPREN ACTIVATOR, Heraeus Dental Material Co., Ltd.). Then the thread was inserted to the left carotid artery from the left carotid artery bifurcation. Then, the origin part of the left MCA was occluded by means of fixing with a Sugita type clip (Mizuho Medical Industry Co., Ltd.). Nine hours after the occlusion, rat was subjected to anesthetic induction with 4% halothane in 30% oxygen/70% air. The anesthesia was maintained by means of 2.5% halothane. […] An amount of cerebral hemorrhage was measured 24 hours after the MCA occlusion.
In addition, intracerebral hemoglobin content can be also measured by using the following methods, in particular, an enzyme-linked immunosorbent assay (ELISA). […]

[2] = system: cerebral hemorrhage model with the use of SHR; assay: Cerebral hemorrhage in MCA occlusion-recanalization model, intracerebral hemoglobin by Drabkin's reagent; assay type: in vivo, rat; settings: 3 mg/kg/h continuous i.v. for 9 hours right after occlusion; measured 24 hours after MCA occlusion; sham 13.0±1.1, saline 25.5±2.2
Experimental: For the animal, a male spontaneously hypertensive rat (hereinafter abbreviated to SHR) (14 to 15 week old); Japan Charles River) was used. The preparation of middle cerebral artery (hereinafter abbreviated to MCA) occlusion-recanalization model of rat was performed according to the method of Koizumi, et al., (in Stroke 8: 1-7, 1986). In particular, the rat was subjected to anesthetic induction by 4% halothane (halothane vaporizer, Shinano Co., Ltd.) in 30% oxygen/70% air. The anesthesia was maintained by means of 2.5% halothane. The animal was placed in a dorsal position. The dissection of anterior neck midline was performed, the left side of the common carotid artery and the external carotid artery were exfoliated from the surrounding connective tissue around the left carotid artery bifurcation, and then a thread was hooked around the artery to ligate, respectively. Afterwards, the left internal carotid artery was exfoliated from the surrounding connective tissue, and then a thread was hooked around the artery. […] An amount of cerebral hemorrhage was measured 24 hours after the MCA occlusion.
An amount of cerebral hemorrhage was measured on the basis of the content of intracerebral hemoglobin (Hb) as an indicator according to a method of Asahi et al. (J Cereb Blood Flow Metab 20: 452-457, 2000)). […] Afterwards, absorbance was measured at 540 nm of photometry wavelength. […]

[3] = system: normal human umbilical cord vein endothelial cell; assay: Effect on vascular endothelial cell death induced by hydrogen peroxide (WST-1 method); assay type: cell-based; settings: 0.5 mM hydrogen peroxide, 6 hours, compound added 15 minutes before
Experimental: A normal human umbilical cord vein endothelial cell (Cat. No. CRL-1730; Dainippon Pharmaceutical Co., Ltd.) was cultured in serum-containing liquid culture medium for vascular endothelial cell (Nissui Pharmaceutical Co., Ltd.) under conditions of 37° C., 5% CO2. The exchange of the culture fluid was performed every other day. The cells proliferated to confluent state were sub-cultured. 5×10^4 cells/mL of cell suspension was disseminated in an amount of 500 μL/well to a gelatin-coated 24 well plate (Iwaki). A few days later, the culture medium was removed after confirming that the cells were proliferated to confluent state, and changed to 480 μL/well of Dulbecco's Modified Eagle's Medium (DMEM; GIBCO-BRL)). The compound A was adjusted to become 50 times larger than the addition final concentration in DMEM after the dissolution of the compound A to dimethyl sulfoxide (DMSO). The sterilization was performed by using 0.22 μm filter for filtration sterilization (Millex, MILLIPORE). […]
The evaluation was performed by means of WST-1 method (modulated MTT method) with the use of Cell Counting Kit (DOJINDO). […] After that, 200 μL/well of the culture supernatant was collected, and then the absorbance (450 nm) was measured. The cell death inhibitory rate of the test substance treated group was calculated, regarding that the cell survival rate of the control group (untreated group) as a standard (100%).

[4] = rat, in vivo, iv, 30 mg/kg
Experimental: (§1) A rat (male Sprague Dawley (SD) rat, 7 weeks old; Shimizu Laboratory Supplies Co., Ltd. (SLC))) was anesthetized with urethane (1.2 g/6 mL/kg, i.p.), and then the animal was placed on an incubation mat (Microtemp, Seabrook Medical Systems) set to 37° C. after indwelling a catheter (EMS cutdown tube, JMS Co., Ltd.) made of vinyl chloride in a left femoral vein for administration of a test substance. […] Five minutes after the administration, a tip of the tail was cut at the position of 2 mm with a razor (single-edged feather), and immediately, the tail was immersed in saline (Otsuka normal saline) warmed to 37° C. Finally, the time until the hemorrhage was stopped (30 minutes at a maximum) was measured, which was regarded as bleeding time.

[5] = Influence of PARP inhibitor on bleeding time (rat tail cut); settings: male SD rat, intravenous bolus, tail tip cut 5 minutes after administration, 30 minutes at a maximum; compound A 30 mg/kg, heparin 100 U/kg; saline control about 15 minutes
Experimental: as §1

bleeding time [5] [min]	Molecule	content of intracerebral hemoglobin ([1]; 1 mg/kg/h) [µg/mL]	content of intracerebral hemoglobin ([1]; 3 mg/kg/h) [µg/mL]	content of intracerebral hemoglobin ([1]; 10 mg/kg/h) [µg/mL]	content of intracerebral hemoglobin [2] [µL]	inhibitory effect of the vascular endothelial cell disorder (cell death inhibitory rate) [3]	bleeding time [4]
	O=C(Cc1n[nH]c(=O)c2c1CCCC2)NCCCCN1CCOCC1 [compound A, 4-(N-(4-(morpholin-4-yl)butyl)carbamoylmethyl)-5,6,7,8-tetrahydrophthalazin-1(2H)-one]	15.4 ± 2.19	15.5 ± 2.14	10.3 ± 1.24	17.7 ± 1.3	showed an inhibitory effect of the vascular endothelial cell disorder dose-dependently	about 15 minutes
≥ 30	heparin						
